The target of assay [1] is T1, wild-type human cardiac sodium channel, hNav1.5 (Homo sapiens, UniProt Q14524). The assay can be described thus: Late INa screening assay (late sodium current, PatchXpress whole cell patch clamp). The assay is classed as cell-based. To be noted: compound at 10 μM; read-out: Late INa % blk. Background: In patch-clamp work, channel activity is measured electrically.
For assay [2], the target named is T1, wild-type human cardiac sodium channel, hNav1.5. In words: Peak INa screening assay (tonic block TB and use-dependent block UDB of peak sodium current). To be noted: compound at 10 μM. In kind it is cell-based. On the procedure:
The late sodium current (Late INa) and peak sodium current (Peak INa) assays are performed on an automated electrophysiology platform, PatchXpress 7000A (MDS Analytical Technologies, Sunnyvale, Calif.), which uses the whole cell patch clamp technique to measure currents through the cell membrane of up to 16 cells at a time. The assay uses an HEK293 (human embryonic kidney) cell line heterologously expressing the wild-type human cardiac sodium channel, hNav1.5, purchased from Millipore (Billerica, Mass.). No beta subunits were coexpressed with the Na channel alpha subunit. […] Experiments are carried out at 24-27° C.
For both the Late INa and Peak INa assays, series resistance compensation is set to 50% and whole-cell compensation is performed automatically. […] Currents through open sodium channels are automatically recorded and stored in the DataXpress2 database (MDS Analytical Technologies, Sunnyvale, Calif.). Analysis is performed using DataXpress2 analysis software and data are compiled in Excel.
Compound stocks are routinely made in glass vials to 10 mM in dimethyl sulfoxide (DMSO). In some cases, when compounds are not soluble in DMSO, they are made in 100% ethanol. Stocks are sonicated as necessary. The extracellular solution for screening Late INa is composed of: 140 mM NaCl, 4 mM KCl, 1.8 mM CaCl2, 0.75 mM MgCl2, and 5 mM HEPES with pH adjusted to 7.4 using NaOH. The extracellular solution for screening Peak INa is composed of: 20 mM NaCl, 120 mM N-methyl-D glucamine, 4 mM KCl, 1.8 mM CaCl2, 0.75 mM MgCl2, and 5 mM HEPES with pH adjusted to 7.4 using HCl. The intracellular solution used to perfuse the inside of the cells for both the Late INa and Peak INa assays contains: 120 mM CsF, 20 mM CsCl, 5 mM EGTA, 5 mM HEPES and pH adjusted to 7.4 with CsOH. Compounds are diluted in extracellular solution to 10 μM in glass vials and then transferred to glass well plates before robotic addition to the cells. The 0 Na extracellular solution used at the end of each experiment for the Late INa and Peak INa assays to measure baseline current contains: 140 mM N-methyl-D-glucamine; 4 mM KCl; 1.8 mM CaCl2; 0.75 mM MgCl2; 5 mM HEPES and pH was adjusted to 7.4 with HCl.
Compounds were also evaluated for their effect in several other assays, including their effect on Peak INa. In some cases, the effect on Peak INa was measured using data from the Late INa assay. […] Since the peak INa can be very large, introducing artifacts in the recording, the concentration of Na^+ in the bath is reduced to 20 mM and a nonpermeant cation is added to compensate for the Na^+ that was omitted from the standard extracellular solution (see above). The peak INa assay uses a holding potential of −100 mV and a 20 ms test pulse to 0 mV to activate the channel. As in the Late INa assay, stepping the voltage to 0 mV causes a rapid increase in negative Na current through hNav1.5 that inactivates within a few ms. No late INa activator is added for the peak assay.
For the separate peak INa assay, both tonic (TB) block and use-dependent (UDB) block of peak inward sodium current by 10 μM compound are determined. TB is block of the channel in the resting state, before the channel opens. TB is simulated in this assay by stimulating the channel to open at a low frequency (0.1 Hz). This is done in order to measure the control current amplitude and monitor current rundown, enabling correction for rundown in the calculation of percent block for TB.

Setting [3] is: tonic block, read-out: Tonic Peak INa % blk.
[4] abbreviates: use-dependent block, read-out: UDB Peak INa % blk.

T1 sequence (Q14524 whole entry): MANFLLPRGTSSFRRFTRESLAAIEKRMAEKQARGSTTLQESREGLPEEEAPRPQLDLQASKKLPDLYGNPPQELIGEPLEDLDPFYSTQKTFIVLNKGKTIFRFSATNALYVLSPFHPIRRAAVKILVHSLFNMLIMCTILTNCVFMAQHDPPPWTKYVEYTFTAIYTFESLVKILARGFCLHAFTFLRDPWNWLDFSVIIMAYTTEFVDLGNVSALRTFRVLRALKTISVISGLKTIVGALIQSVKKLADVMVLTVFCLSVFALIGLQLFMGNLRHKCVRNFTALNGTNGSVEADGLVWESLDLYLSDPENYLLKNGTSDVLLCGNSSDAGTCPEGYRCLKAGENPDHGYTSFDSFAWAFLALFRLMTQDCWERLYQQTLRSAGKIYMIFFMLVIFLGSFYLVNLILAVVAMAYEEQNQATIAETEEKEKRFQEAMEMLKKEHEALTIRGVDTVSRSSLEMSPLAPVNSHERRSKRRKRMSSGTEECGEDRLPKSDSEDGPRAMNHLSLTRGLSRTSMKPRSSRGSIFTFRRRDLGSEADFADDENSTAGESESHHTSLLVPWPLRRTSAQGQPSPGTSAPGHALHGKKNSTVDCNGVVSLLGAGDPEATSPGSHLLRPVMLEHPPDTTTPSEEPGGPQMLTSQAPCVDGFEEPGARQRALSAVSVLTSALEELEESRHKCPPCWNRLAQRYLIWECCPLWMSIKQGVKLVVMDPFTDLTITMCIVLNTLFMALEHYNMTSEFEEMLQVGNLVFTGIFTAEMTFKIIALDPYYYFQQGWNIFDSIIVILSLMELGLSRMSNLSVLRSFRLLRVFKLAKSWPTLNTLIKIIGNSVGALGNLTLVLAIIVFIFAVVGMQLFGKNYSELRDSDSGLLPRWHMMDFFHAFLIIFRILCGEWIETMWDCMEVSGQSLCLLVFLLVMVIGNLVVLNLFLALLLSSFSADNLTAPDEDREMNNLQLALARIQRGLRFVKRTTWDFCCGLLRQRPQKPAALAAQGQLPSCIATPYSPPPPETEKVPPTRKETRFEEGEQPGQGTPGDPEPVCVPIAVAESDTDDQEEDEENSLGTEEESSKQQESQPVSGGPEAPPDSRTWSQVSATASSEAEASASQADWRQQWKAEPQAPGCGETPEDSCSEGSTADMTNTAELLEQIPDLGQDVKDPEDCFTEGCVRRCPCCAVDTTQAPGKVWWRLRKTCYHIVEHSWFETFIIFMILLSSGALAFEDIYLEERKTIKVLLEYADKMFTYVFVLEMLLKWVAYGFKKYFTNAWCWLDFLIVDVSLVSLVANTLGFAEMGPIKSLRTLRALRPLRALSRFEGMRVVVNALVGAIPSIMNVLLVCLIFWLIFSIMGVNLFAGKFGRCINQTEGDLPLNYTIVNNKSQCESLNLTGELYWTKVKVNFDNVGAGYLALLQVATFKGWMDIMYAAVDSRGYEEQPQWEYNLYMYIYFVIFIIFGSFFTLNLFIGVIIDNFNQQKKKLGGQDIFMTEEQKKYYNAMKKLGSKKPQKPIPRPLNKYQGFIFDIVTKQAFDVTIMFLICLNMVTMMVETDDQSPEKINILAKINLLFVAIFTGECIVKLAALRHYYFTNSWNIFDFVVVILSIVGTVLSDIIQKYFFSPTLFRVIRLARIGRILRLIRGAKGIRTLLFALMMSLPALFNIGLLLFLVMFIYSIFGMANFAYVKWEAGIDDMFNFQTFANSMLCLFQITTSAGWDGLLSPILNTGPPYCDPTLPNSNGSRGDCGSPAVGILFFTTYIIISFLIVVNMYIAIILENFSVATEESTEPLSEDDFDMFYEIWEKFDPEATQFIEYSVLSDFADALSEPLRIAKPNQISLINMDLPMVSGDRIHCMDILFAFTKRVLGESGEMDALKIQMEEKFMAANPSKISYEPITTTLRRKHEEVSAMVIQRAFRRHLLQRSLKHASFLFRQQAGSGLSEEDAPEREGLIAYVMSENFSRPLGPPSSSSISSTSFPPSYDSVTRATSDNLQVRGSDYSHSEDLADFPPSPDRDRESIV

On to `CC1=C(C(=O)O[C@@H](C)c2ccccc2)C(c2c3ccccc3cc3ccccc23)n2nnnc2N1` (stereo partly drawn) [PT-055, (S)-1-phenylethyl 7-(anthracen-9-yl)-5-methyl-4,7-dihydrotetrazolo[1,5-a]pyrimidine-6-carboxylate], for which the inhibition at 10 µM was determined as 56.3% in assay [1] and 7.6% in assay [2] (setting [3]).

`N#CC1=C(N)OC2=C(C(=O)CC(c3ccccc3)C2)C1c1ccsc1` (stereo not drawn) [PT-102, 2-amino-5-oxo-7-phenyl-4-(thiophen-3-yl)-5,6,7,8-tetrahydro-4H-chromene-3-carbonitrile]: the inhibition at 10 µM in assay [1] amounted to 44.9%; in assay [2] (setting [3]) it was 2.7%.

For `CCOC(=O)C1=C(C)NC(C)=C(C(=O)OCC)C1c1ccsc1` [PT-110, diethyl 2,6-dimethyl-4-(thiophen-3-yl)-1,4-dihydropyridine-3,5-dicarboxylate], the results for the inhibition at 10 µM in assay [1] and in assay [2] (setting [3]) were 41.8% and 0%, respectively.

For `CCOC(=O)C1=C(C)NC2=C(C(=O)CCC2)C1c1ccc(C)c2ccccc12` (stereo not drawn) [PT-135, ethyl 2-methyl-4-(4-methylnaphthalen-1-yl)-5-oxo-1,4,5,6,7,8-hexahydroquinoline-3-carboxylate], the inhibition at 10 µM stood at 59.9% in assay [1] and 9.6% in assay [2] (setting [3]).

Regarding `CC1=C(C(=O)OC(C)C)C(c2c[nH]nc2-c2cccs2)C2=C(CC(C)(C)CC2=O)N1` (stereo not drawn) [PT-162, isopropyl 2,7,7-trimethyl-5-oxo-4-(3-(thiophen-2-yl)-1H-pyrazol-4-yl)-1,4,5,6,7,8-hexahydroquinoline-3-carboxylate], the inhibition at 10 µM was -0.2% in assay [1] and 1.1% in assay [2] (setting [3]).

`CC1=C(C(=O)NCCCCc2ccccc2)C(c2ccsc2)C2=C(CCCC2=O)N1` (stereo not drawn) [PT-164, 2-methyl-5-oxo-N-(4-phenylbutyl)-4-(thiophen-3-yl)-1,4,5,6,7,8-hexahydroquinoline-3-carboxamide]: the figures for the inhibition at 10 µM in assay [1] and in assay [2] (setting [3]) were 32% and 10.2%, respectively.

For the compound `CC1=C(C(=O)O[C@@H](C)c2ccccc2)C(c2sc3ccccc3c2C)n2nccc2N1` (stereo partly drawn) [PT-244, (S)-1-phenylethyl 5-methyl-7-(3-methylbenzo[b]thiophen-2-yl)-4,7-dihydropyrazolo[1,5-a]pyrimidine-6-carboxylate], the results for the inhibition at 10 µM in assay [1], in assay [2] (setting [3]) and in assay [2] (setting [4]) were 68.7%, 66.2% and 44%, respectively.

Take `COc1ccccc1COC(=O)C1=C(C)Nc2nnnn2C1c1c(C)cccc1C` (stereo not drawn) [PT-262, 2-methoxybenzyl 7-(2,6-dimethylphenyl)-5-methyl-4,7-dihydrotetrazolo[1,5-a]pyrimidine-6-carboxylate]: the inhibition at 10 µM in assay [1] was determined as 70%; in assay [2] (setting [3]), 15.1%; in assay [2] (setting [4]), 6.9%.

For `CC1=C(c2nnc(Cc3ccccc3)o2)C(c2cccc3ccccc23)C2=C(CCCC2=O)N1` (stereo not drawn) [PT-276, 3-(5-benzyl-1,3,4-oxadiazol-2-yl)-2-methyl-4-(naphthalen-1-yl)-4,6,7,8-tetrahydroquinolin-5(1H)-one], the inhibition at 10 µM in assay [1] was found to be 49.7%; in assay [2] (setting [3]), 31.3%; in assay [2] (setting [4]), 13%.

Consider `CC1=C(C(=O)OCc2ccccc2)C(c2ccc3ccccc3c2)C2=C(CCCC2=O)N1` (stereo not drawn) [PT-320, benzyl 2-methyl-4-(naphthalen-2-yl)-5-oxo-1,4,5,6,7,8-hexahydroquinoline-3-carboxylate], for which the inhibition at 10 µM in assay [1] worked out at 51%; in assay [2] (setting [3]) it was 16.7%; in assay [2] (setting [4]), 26.5%.

Regarding `CCOC(=O)[C@@H]1CCCN(c2cc(OC)ccc2C2C(C(=O)OCc3ccccc3)=C(C)Nc3[nH]ncc32)C1` (stereo partly drawn) [PT-327, benzyl 4-(2-((R)-3-(ethoxycarbonyl)piperidin-1-yl)-4-methoxyphenyl)-6-methyl-4,7-dihydro-1H-pyrazolo[3,4-b]pyridine-5-carboxylate], the figures for the inhibition at 10 µM in assay [1], in assay [2] (setting [3]) and in assay [2] (setting [4]) were 35.3%, 18.5% and 9.4%, respectively.

Regarding `CC1=C(C(=O)OCc2ccccc2)C(c2ccc(N(C)C)c3ccccc23)c2cn[nH]c2N1` (stereo not drawn) [PT-332, benzyl 4-(4-(dimethylamino)naphthalen-1-yl)-6-methyl-4,7-dihydro-1H-pyrazolo[3,4-b]pyridine-5-carboxylate], the inhibition at 10 µM in assay [1] came out at 20%; in assay [2] (setting [3]), 11.3%; in assay [2] (setting [4]) it was 2.7%.

For the compound `CC1=C(C(=O)OCc2ccccc2)C(c2occc2-c2ccccc2)n2nnnc2N1` (stereo not drawn) [PT-351, benzyl 5-methyl-7-(3-phenylfuran-2-yl)-4,7-dihydrotetrazolo[1,5-a]pyrimidine-6-carboxylate], the inhibition at 10 µM in assay [1] is 81.6%; in assay [2] (setting [3]) it was 49.9%.

As to `CC1=C(C(=O)OCc2ccccc2)C(c2sccc2-c2ccccc2)n2nnnc2N1` (stereo not drawn) [PT-352, benzyl 5-methyl-7-(3-phenylthiophen-2-yl)-4,7-dihydrotetrazolo[1,5-a]pyrimidine-6-carboxylate], the inhibition at 10 µM stood at 76.3% in assay [1] and 17.7% in assay [2] (setting [3]).

`CCOC(=O)[C@@H]1CCCN(c2cc(OC)ccc2C2C(C(=O)OCc3ccccc3)=C(C)Nc3nnnn32)C1` (stereo partly drawn) [PT-373, benzyl 7-(2-((R)-3-(ethoxycarbonyl)piperidin-1-yl)-4-methoxyphenyl)-5-methyl-4,7-dihydrotetrazolo[1,5-a]pyrimidine-6-carboxylate]: the inhibition at 10 µM in assay [1] amounted to 64.9%; in assay [2] (setting [3]), 22.5%.

In the case of `CC1=C(C(=O)OCc2ccccc2)C(c2ccccc2OCCN(C)C)n2nnnc2N1` (stereo not drawn) [PT-374, benzyl 7-(2-(2-(dimethylamino)ethoxy)phenyl)-5-methyl-4,7-dihydrotetrazolo[1,5-a]pyrimidine-6-carboxylate], the inhibition at 10 µM in assay [1] was determined as 66.3%; in assay [2] (setting [3]), 38.7%.

As for `COc1ccc(-c2sc3ccccc3c2C2C(C(=O)OCc3ccccc3)=C(C)Nc3nnnn32)cc1` (stereo not drawn) [PT-379, benzyl 7-(2-(4-methoxyphenyl)benzo[b]thiophen-3-yl)-5-methyl-4,7-dihydrotetrazolo[1,5-a]pyrimidine-6-carboxylate], the figures for the inhibition at 10 µM in assay [1], in assay [2] (setting [3]) and in assay [2] (setting [4]) were 55%, 11.1% and 9.8%, respectively.

With `COc1cc([N+](=O)[O-])ccc1C1C(C(=O)OCc2ccccc2)=C(C)Nc2ccnn21` (stereo not drawn) [PT-394, benzyl 7-(2-methoxy-4-nitrophenyl)-5-methyl-4,7-dihydropyrazolo[1,5-a]pyrimidine-6-carboxylate], the inhibition at 10 µM is 45.2% in assay [1], 15.4% in assay [2] (setting [3]) and 8% in assay [2] (setting [4]).

Regarding `CC1=C(C(=O)OCc2ccccc2)C(c2sccc2Br)n2nnnc2N1` (stereo not drawn) [PT-401, benzyl 7-(3-bromothiophen-2-yl)-5-methyl-4,7-dihydrotetrazolo[1,5-a]pyrimidine-6-carboxylate], the inhibition at 10 µM in assay [1] is 77.3%; in assay [2] (setting [3]) it was 25.9%.

As to `CC1=C(C(=O)OCc2ccccc2)C(c2cc(C)c(C)s2)n2nnnc2N1` (stereo not drawn) [PT-414, benzyl 7-(4,5-dimethylthiophen-2-yl)-5-methyl-4,7-dihydrotetrazolo[1,5-a]pyrimidine-6-carboxylate], the inhibition at 10 µM is 78% in assay [1] and 21.6% in assay [2] (setting [3]).

For the compound `CC1=C(C(=O)OC(c2ccc(F)cc2)c2ccc(F)cc2)C(c2cccs2)n2nnnc2N1` (stereo not drawn) [PT-423, bis(4-fluorophenyl)methyl 5-methyl-7-(thiophen-2-yl)-4,7-dihydrotetrazolo[1,5-a]pyrimidine-6-carboxylate], the inhibition at 10 µM came out at 67.2% in assay [1], 18.5% in assay [2] (setting [3]) and 20.4% in assay [2] (setting [4]).

The values above are taken from patent US20090012103A1, “SUBSTITUTED HETEROCYCLIC COMPOUNDS” (priority 2007, published 2009).
